US20250344734A1, “UNSATURATED FATTY ACIDS AND THEIR USE TO MODIFY TASTE” (Firmenich Incorporated, priority 2022, published 2025)

Columns and labels:
Assay type in all cases: cell-based
Details in all cases: unsaturated fatty acid concentration of 200 µM, cells stimulated with known bitter agonist
T2R03 (TAS2R03) = target: T1, T2R03 (TAS2R03) (Homo sapiens, UniProt Q9NYW6); experiment: FLIPR calcium assay, block of bitter agonist response, T2R03
T1 construct: expressed in transfected cells; host or cells: cells expressing a promiscuous G protein (e.g., G16g44)
T1 sequence (Q9NYW6 1-316): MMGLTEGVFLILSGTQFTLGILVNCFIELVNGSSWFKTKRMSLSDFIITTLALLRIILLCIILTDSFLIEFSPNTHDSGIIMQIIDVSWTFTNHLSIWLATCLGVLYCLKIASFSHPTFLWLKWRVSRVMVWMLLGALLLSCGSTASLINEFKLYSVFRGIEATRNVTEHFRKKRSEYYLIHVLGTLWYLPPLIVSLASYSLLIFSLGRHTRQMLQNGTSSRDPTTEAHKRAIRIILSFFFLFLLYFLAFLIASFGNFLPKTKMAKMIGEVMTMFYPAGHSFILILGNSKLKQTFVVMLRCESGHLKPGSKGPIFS
Description: (§1) Cells expressing a promiscuous […] (e.g., G16g44) were transfected with vectors encoding 18 functional bitter receptor cDNAs, with one receptor per transfection. The cells were transfected directly in 384-well format high-density plates and incubated for 28 hours. Later, cells were loaded with the Ca-specific dye Fluo4-AM. After an incubation of 60 minutes, excess dye is washed off, and cells are stimulated with a known bitter agonist for each receptor and various unsaturated fatty acids. Changes in intracellular fluorescence are recorded using a FLIPR instrument. Bitter antagonists and corresponding receptors are identified based on percentage inhibition of agonist's activity on a given receptor.
(§2) The above protocol was carried out using 16 different unsaturated fatty acids. A particular T2R receptor was identified as being antagonized by a particular unsaturated fatty acid if it triggered a >25% block of agonist's cellular response at 200 μM concentration of unsaturated fatty acid. […] Table 2 indicates the sixteen (16) compounds tested by their compound number from Table 1 above. The 18 bitter taste receptors screened are the human bitter taste receptors we named. […]

T2R04 (TAS2R04) = target: T2, T2R04 (TAS2R04) (Homo sapiens, UniProt Q9NYW5); experiment: FLIPR calcium assay, block of bitter agonist response, T2R04
T2 construct: expressed in transfected cells; host or cells: cells expressing a promiscuous G protein (e.g., G16g44)
T2 sequence (Q9NYW5 1-299): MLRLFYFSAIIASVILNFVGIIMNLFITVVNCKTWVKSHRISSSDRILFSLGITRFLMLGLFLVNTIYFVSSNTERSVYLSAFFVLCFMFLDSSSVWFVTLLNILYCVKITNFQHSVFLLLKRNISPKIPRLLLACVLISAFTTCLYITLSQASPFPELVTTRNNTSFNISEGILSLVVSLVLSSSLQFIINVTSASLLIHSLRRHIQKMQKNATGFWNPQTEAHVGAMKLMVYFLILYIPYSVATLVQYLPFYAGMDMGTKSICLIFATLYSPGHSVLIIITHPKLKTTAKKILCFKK
Description: as §1, §2

T2R09 (TAS2R09) = target: T3, T2R09 (TAS2R09) (Homo sapiens, UniProt Q9NYW1); experiment: FLIPR calcium assay, block of bitter agonist response, T2R09
T3 construct: expressed in transfected cells; host or cells: cells expressing a promiscuous G protein (e.g., G16g44)
T3 sequence (Q9NYW1 1-312): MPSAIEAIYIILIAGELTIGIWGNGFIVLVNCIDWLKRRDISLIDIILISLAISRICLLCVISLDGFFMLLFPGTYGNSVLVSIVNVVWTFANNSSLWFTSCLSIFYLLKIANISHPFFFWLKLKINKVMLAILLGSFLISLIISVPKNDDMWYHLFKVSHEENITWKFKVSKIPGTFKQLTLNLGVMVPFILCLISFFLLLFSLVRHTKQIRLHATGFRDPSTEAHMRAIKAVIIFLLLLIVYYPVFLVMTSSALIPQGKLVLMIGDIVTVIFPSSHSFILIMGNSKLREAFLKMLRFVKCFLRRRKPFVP
Description: as §1, §2

T2R61 (TAS2R43) = target: T4, T2R61 (TAS2R43) (Homo sapiens, UniProt P59537); experiment: FLIPR calcium assay, block of bitter agonist response, T2R61
T4 construct: expressed in transfected cells; host or cells: cells expressing a promiscuous G protein (e.g., G16g44)
T4 sequence (P59537 1-309): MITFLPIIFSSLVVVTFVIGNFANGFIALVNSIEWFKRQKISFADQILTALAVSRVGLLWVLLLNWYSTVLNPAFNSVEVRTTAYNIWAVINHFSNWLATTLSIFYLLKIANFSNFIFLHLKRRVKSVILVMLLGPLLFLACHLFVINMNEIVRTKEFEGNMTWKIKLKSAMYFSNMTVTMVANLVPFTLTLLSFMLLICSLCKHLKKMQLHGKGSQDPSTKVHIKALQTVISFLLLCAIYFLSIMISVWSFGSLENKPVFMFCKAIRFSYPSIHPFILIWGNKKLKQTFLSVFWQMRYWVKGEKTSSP
Description: as §1, §2

T2R64 (TAS2R31) = target: T5, T2R64 (TAS2R31) (Homo sapiens, UniProt P59538); experiment: FLIPR calcium assay, block of bitter agonist response, T2R64
T5 construct: expressed in transfected cells; host or cells: cells expressing a promiscuous G protein (e.g., G16g44)
T5 sequence (P59538 1-309): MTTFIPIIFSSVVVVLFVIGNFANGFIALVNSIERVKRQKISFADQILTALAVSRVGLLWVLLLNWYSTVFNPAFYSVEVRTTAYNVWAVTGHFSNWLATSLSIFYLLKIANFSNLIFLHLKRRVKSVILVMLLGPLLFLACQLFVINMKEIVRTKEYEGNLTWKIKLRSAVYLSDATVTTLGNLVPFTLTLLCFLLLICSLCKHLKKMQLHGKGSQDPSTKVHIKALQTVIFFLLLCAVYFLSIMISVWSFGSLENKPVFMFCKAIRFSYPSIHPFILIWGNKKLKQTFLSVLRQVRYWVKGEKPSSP
Description: as §1, §2

T2R65 (TAS2R19) = target: T6, T2R65 (TAS2R19) (Homo sapiens, UniProt P59542); experiment: FLIPR calcium assay, block of bitter agonist response, T2R65
T6 construct: expressed in transfected cells; host or cells: cells expressing a promiscuous G protein (e.g., G16g44)
T6 sequence (P59542 1-299): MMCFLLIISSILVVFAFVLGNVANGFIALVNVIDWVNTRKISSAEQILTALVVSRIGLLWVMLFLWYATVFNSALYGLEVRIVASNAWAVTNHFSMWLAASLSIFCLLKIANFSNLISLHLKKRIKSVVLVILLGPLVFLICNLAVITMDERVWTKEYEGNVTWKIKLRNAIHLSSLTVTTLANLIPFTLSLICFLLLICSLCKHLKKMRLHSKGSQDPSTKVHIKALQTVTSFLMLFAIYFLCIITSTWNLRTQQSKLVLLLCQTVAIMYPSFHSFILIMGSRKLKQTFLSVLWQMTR
Description: as §1, §2

percentage block of cellular response over baseline, 03 (T2R03 (TAS2R03)): >45%
percentage block of cellular response over baseline, 04 (T2R04 (TAS2R04)): >90%
percentage block of cellular response over baseline, 09 (T2R09 (TAS2R09)): 30%
percentage block of cellular response over baseline, 61 (T2R61 (TAS2R43)): >90%
percentage block of cellular response over baseline, 64 (T2R64 (TAS2R31)): >85%
percentage block of cellular response over baseline, 65 (T2R65 (TAS2R19)): >35%
SMILES: CC(C)=CCC/C(C)=C/C(=O)O [Compound 129]
